US20170000749A1, “Methods for Treating Cognitive Disorders Using Inhibitors of Histone Deacetylase” (Forum Pharmaceuticals, Inc., priority 2008, published 2017)
Read-outs that look alike come from different tables or passages of the source.

Tests used:
[1] = target: one or more of HDAC-1, HDAC-2, HDAC-3, HDAC-4, HDAC-5, HDAC-6, HDAC-7, HDAC-8, HDAC-9, HDAC-10 and HDAC-11; assay: Inhibition of Histone Deacetylase Enzymatic Activity (Boc-Lys(Ac)-AMC substrate, Fluor-de-Lys developer); format: biochemical; settings: read-out: HDAC Inhibition (IC50 μM) HDAC Enzyme
Description: The following protocol is used to assay the compounds of the disclosure.
The mixture is pre-incubated for 5 minutes at room temperature. The reaction is started by bringing the temperature to 37° C. and adding 16 μl substrate. Total reaction volume is 50 μl.
In the Tables 8, 9 and 10, A≦0.05 μM; 0.05 μM<B≦0.1 μM; 0.1 μM<C≦1 μM; and 1 μM<D≦10 μM.

[2] = system: HDAC activity in primary mouse cortical cultures; assay: Whole-Cell Histone Deacetylase (HDAC) Inhibition Assay in Primary Mouse Cortical Cultures; format: cell-based
Outline: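 Primary neocortical neurons from E17 Balb/C mouse embryos were plated at 50000 cells/well and treated at DIV9 with ten-point DMSO dilutions for 16-18 h at 37° C, in triplicate. BOC-Lys(Ac)-AMC substrate was then added for 1 h. Fluor de Lys developer containing 1 uM TSA produced a fluorophore, which was read.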

[3] = read-out: HDAC Inhibition (IC50 μM) WC mouse cortical neurons, Table 10
[4] = whole-cell (WC), mouse cortical neurons, Table 10, read-out: HDAC Inhibition (IC50 μM) WC mouse cortical neurons
[5] = whole-cell (WC), mouse cortical neurons, Table 8, read-out: HDAC Inhibition (IC50 μM) WC mouse cortical neurons

IC50 ([1]; Table 10) | IC50 [2, 4] | IC50 ([1]; Table 8) | IC50 [2, 5] | Compound | IC50 [2, 3]
 |  | < 0.05 µM | 1 to 5 µM | O=C(NO)c1ccc(C2=Nc3ccccc3Oc3ccc(F)cc32)cc1 [(Z)-4-(2-fluorodibenzo[b,f][1,4]oxazepin-11-yl)-N-hydroxybenzamide] | 
 |  | 0.1 to 1 µM | > 15 µM | O=C(NO)c1ccc(C2=Nc3ccccc3Oc3cc(F)ccc32)cc1 [(Z)-4-(3-fluorodibenzo[b,f][1,4]oxazepin-11-yl)-N-hydroxybenzamide] | 
 |  | 0.1 to 1 µM | 5 to 15 µM | O=C(NO)c1ccc(C2=Nc3ccccc3Oc3c(F)cccc32)cc1 [(Z)-4-(4-fluorodibenzo[b,f][1,4]oxazepin-11-yl)-N-hydroxybenzamide] | 
 |  | 0.05 to 0.1 µM | 1 to 5 µM | O=C(NO)c1ccc(C2=Nc3ccccc3N(C3CC3)c3ccc(F)cc32)cc1 [(Z)-4-(5-cyclopropyl-2-fluoro-5H-dibenzo[b,e][1,4]diazepin-11-yl)-N-hydroxybenzamide] | 
 |  | 0.1 to 1 µM | 1 to 5 µM | O=C(NO)c1ccc(C2=Nc3ccccc3N(C3CC3)c3ccccc32)cc1 [(Z)-4-(5-cyclopropyl-5H-dibenzo[b,e][1,4]diazepin-11-yl)-N-hydroxybenzamide] | 
 |  | 0.05 to 0.1 µM | 1 to 5 µM | CCN1c2ccccc2N=C(c2ccc(C(=O)NO)cc2)c2ccccc21 [(Z)-4-(5-ethyl-5H-dibenzo[b,e][1,4]diazepin-11-yl)-N-hydroxybenzamide] | 
 |  | < 0.05 µM | 1 to 5 µM | O=C(NO)c1ccc(C2=Nc3ccccc3Cn3cccc32)cc1 [(Z)-4-(5H-benzo[e]pyrrolo[1,2-a][1,4]diazepin-11-yl)-N-hydroxybenzamide] | 
 |  | 0.1 to 1 µM | 1 to 5 µM | O=C(NO)c1ccc(C2=Nc3ccccc3Nc3ccccc32)cc1 [(Z)-4-(5H-dibenzo[b,e][1,4]diazepin-11-yl)-N-hydroxybenzamide] | 
 |  | 0.05 to 0.1 µM | 5 to 15 µM | O=C(NO)c1ccc(C2=Nc3cccc(F)c3Oc3ccccc32)cc1 [(Z)-4-(6-fluorodibenzo[b,f][1,4]oxazepin-11-yl)-N-hydroxybenzamide] | 
 |  | 0.1 to 1 µM | 5 to 15 µM | O=C(NO)c1ccc(C2=Nc3ccc(Cl)cc3Oc3ccccc32)cc1 [(Z)-4-(7-chlorodibenzo[b,f][1,4]oxazepin-11-yl)-N-hydroxybenzamide] | 
 |  | 0.1 to 1 µM | 5 to 15 µM | O=C(NO)c1ccc(C2=Nc3cc(Cl)ccc3Oc3ccccc32)cc1 [(Z)-4-(8-chlorodibenzo[b,f][1,4]oxazepin-11-yl)-N-hydroxybenzamide] | 
 |  | 0.05 to 0.1 µM | 1 to 5 µM | O=C(NO)c1ccc(C2=Nc3cc(Cl)ccc3Nc3ccccc32)cc1 [(Z)-4-(8-oro-5H-dibenzo[b,e][1,4]diazepin-11-yl)-N-hydroxybenzamide] | 
 |  | < 0.05 µM | < 1 µM | O=C(NO)c1ccc(C2=Nc3ccccc3N(C3CC3)c3ncccc32)cc1 [(Z)-4-(11-cyclopropyl-11H-benzo[b]pyrido[2,3-e][1,4]diazepin-5-yl)-N-hydroxybenzamide] | 
 |  | < 0.05 µM | < 1 µM | CCN1c2ccccc2N=C(c2ccc(C(=O)NO)cc2)c2cccnc21 [(Z)-4-(11-ethyl-11H-benzo[b]pyrido[2,3-e][1,4]diazepin-5-yl)-N-hydroxybenzamide] | 
 |  | 0.05 to 0.1 µM | 1 to 5 µM | O=C(NO)c1ccc(C2=Nc3ccccc3Oc3ncccc32)cc1 [(Z)-4-(benzo[b]pyrido[3,2-f][1,4]oxazepin-5-yl)-N-hydroxybenzamide] | 
 |  | < 0.05 µM | 1 to 5 µM | O=C(NO)c1ccc(C2=Nc3cccnc3Oc3ccccc32)cc1 [(Z)-4-(benzo[f]pyrido[2,3-b][1,4]oxazepin-6-yl)-N-hydroxybenzamide] | 
 |  | < 0.05 µM | < 1 µM | O=C(NO)c1ccc(C2=Nc3ccccc3Oc3ccccc32)cc1 [(Z)-4-(dibenzo[b,f][1,4]oxazepin-11-yl)-N-hydroxybenzamide] | 
 |  | 0.1 to 1 µM | 5 to 15 µM | O=C(NO)c1ccc(C2=Nc3ccccc3Oc3c[n+]([O-])ccc32)cc1 [(Z)-5-(4-(hydroxycarbamoyl)phenyl)benzo[b]pyrido[4,3-f][1,4]oxazepine 2-oxide] | 

The remaining lines, values behind:

Compound | IC50 ([1]; Table 10) | IC50 [2, 4] | IC50 ([1]; Table 8) | IC50 [2, 5] | IC50 [2, 3]
CN1C(=O)CN=C(c2ccccc2)c2ccc(/C=C/C(=O)NO)cc21 [(E)-N-hydroxy-3-((Z)-1-methyl-2-oxo-5-phenyl-2,3-dihydro-1H-benzo[e][1,4]diazepin-8-yl)acrylamide] | 0.1 to 1 µM |  |  |  | 1 to 5 µM
O=C(/C=C/c1ccc2c(c1)NC(=O)CN=C2c1ccccc1)NO [(E)-N-hydroxy-3-((Z)-2-oxo-5-phenyl-2,3-dihydro-1H-benzo[e][1,4]diazepin-8-yl)acrylamide] | 0.05 to 0.1 µM |  |  |  | 1 to 5 µM
O=C(NO)c1ccc(/C=C/CN2C(=O)c3ccccc3Oc3ccccc32)cc1 [(E)-N-hydroxy-4-(3-(11-oxodibenzo[b,f][1,4]oxazepin-10(11H)-yl)prop-1-enyl)benzamide] | 0.05 to 0.1 µM | < 1 µM |  |  | 
O=C(NO)c1ccc(-c2ccc3c(c2)C(N2CCOCC2)=Nc2ccccc2O3)cc1 [(E)-N-hydroxy-4-(11-morpholinodibenzo[b,f][1,4]oxazepin-2-yl)benzamide] |  |  | < 0.05 µM | > 15 µM | 
O=C(Cc1ccc(CN2c3ccccc3C=Cc3ccccc32)cc1)NO [(Z)-2-(4-((5H-dibenzo[b,f]azepin-5-yl)methyl)phenyl)-N-hydroxyacetamide] | 0.1 to 1 µM | 5 to 15 µM |  |  | 
O=C(NO)c1cccc(C2=Nc3ccccc3Oc3ccccc32)c1 [(Z)-3-(dibenzo[b,f][1,4]oxazepin-11-yl)-N-hydroxybenzamide] |  |  | 0.1 to 1 µM | > 15 µM | 
O=C(NO)c1ccc(C2=Nc3ccccc3Oc3cccc(F)c32)cc1 [(Z)-4-(1-fluorodibenzo[b,f][1,4]oxazepin-11-yl)-N-hydroxybenzamide] |  |  | < 0.05 µM | 5 to 15 µM | 
O=C(NO)c1ccc(C2=Nc3ccccc3Oc3ccc(Cl)cc32)cc1 [(Z)-4-(2-chlorodibenzo[b,f][1,4]oxazepin-11-yl)-N-hydroxybenzamide] |  |  | < 0.05 µM | 5 to 15 µM | 
COc1cc(F)cc2c1Oc1ccccc1N=C2c1ccc(C(=O)NO)cc1 [(Z)-4-(2-fluoro-4-methoxydibenzo[b,f][1,4]oxazepin-11-yl)-N-hydroxybenzamide] |  |  | < 0.05 µM | 1 to 5 µM | 
O=C(CCCN1c2ccccc2C=Cc2ccccc21)NO [(Z)-4-(5H-dibenzo[b,f]azepin-5-yl)-N-hydroxybutanamide] | 1 to 10 µM | 5 to 15 µM |  |  | 
N#Cc1ccc2c(c1)Oc1ccccc1C(c1ccc(C(=O)NO)cc1)=N2 [(Z)-4-(7-cyanodibenzo[b,f][1,4]oxazepin-11-yl)-N-hydroxybenzamide] |  |  | < 0.05 µM | 5 to 15 µM | 
N#Cc1ccc2c(c1)N=C(c1ccc(C(=O)NO)cc1)c1ccccc1O2 [(Z)-4-(8-cyanodibenzo[b,f][1,4]oxazepin-11-yl)-N-hydroxybenzamide] |  |  | 0.05 to 0.1 µM | 1 to 5 µM | 
O=C(NO)c1ccc(C2=Nc3c(F)cccc3Oc3ccccc32)cc1 [(Z)-4-(9-fluorodibenzo[b,f][1,4]oxazepin-11-yl)-N-hydroxybenzamide] |  |  | 0.05 to 0.1 µM | 1 to 5 µM | 
O=C(NO)c1ccc(CN2c3ccccc3C=Cc3ccccc32)cc1 [(Z)-4-((5H-dibenzo[b,f]azepin-5-yl)methyl)-N-hydroxybenzamide] | < 0.05 µM | 5 to 15 µM |  |  | 
O=C(NO)c1ccc(C2=Nc3ccccc3Oc3cnccc32)cc1 [(Z)-4-(benzo[b]pyrido[4,3-f][1,4]oxazepin-5-yl)-N-hydroxybenzamide] |  |  | 0.1 to 1 µM | < 1 µM | 
O=C(NO)c1ccc(C2=Nc3ccsc3Oc3ccccc32)cc1 [(Z)-4-(benzo[f]thieno[2,3-b][1,4]oxazepin-5-yl)-N-hydroxybenzamide] |  |  | 0.1 to 1 µM | 1 to 5 µM | 
O=C(NO)c1ccc(C2=Nc3ccccc3Oc3ccccc32)cc1F [(Z)-4-(dibenzo[b,f][1,4]oxazepin-11-yl)-2-fluoro-N-hydroxybenzamide] |  |  | 0.1 to 1 µM | 5 to 15 µM | 
O=C(CCCCN1c2ccccc2C=Cc2ccccc21)NO [(Z)-5-(5H-dibenzo[b,f]azepin-5-yl)-N-hydroxypentanamide] | 0.1 to 1 µM | 5 to 15 µM |  |  | 
O=C(CCCCCN1c2ccccc2C=Cc2ccccc21)NO [(Z)-6-(5H-dibenzo[b,f]azepin-5-yl)-N-hydroxyhexanamide] | < 0.05 µM | 1 to 5 µM |  |  | 
O=C(CCCCCC(=O)N1c2ccccc2C=Cc2ccccc21)NO [(Z)-7-(5H-dibenzo[b,f]azepin-5-yl)-N-hydroxy-7-oxoheptanamide] | < 0.05 µM | < 1 µM |  |  | 
O=C(CCCCCCN1c2ccccc2C=Cc2ccccc21)NO [(Z)-7-(5H-dibenzo[b,f]azepin-5-yl)-N-hydroxyheptanamide] | < 0.05 µM | 1 to 5 µM |  |  | 
O=C(CCCCCCC(=O)N1c2ccccc2C=Cc2ccccc21)NO [(Z)-8-(5H-dibenzo[b,f]azepin-5-yl)-N-hydroxy-8-oxooctanamide] | 0.1 to 1 µM | 5 to 15 µM |  |  | 
CN1C(=O)CN=C(c2ccccc2)c2ccc(CCC(=O)NO)cc21 [(Z)-N-hydroxy-3-(1-methyl-2-oxo-5-phenyl-2,3-dihydro-1H-benzo[e][1,4]diazepin-8-yl)propanamide] | 0.1 to 1 µM |  |  |  | 5 to 15 µM
CN1C(=O)CN=C(c2ccc(C(=O)NO)cc2)c2ccccc21 [(Z)-N-hydroxy-4-(1-methyl-2-oxo-2,3-dihydro-1H-benzo[e][1,4]diazepin-5-yl)benzamide] | 0.1 to 1 µM |  |  |  | 5 to 15 µM
